Results reported in patent US8535662B2, “Apyrase therapy for bleeding conditions” (Apt Therapeutics, Inc., priority 2010, dated 2013).
“And” between values parts separate entries of the source, which are not always exact repeats. Equal values may be shown once. Marks after values point to notes of the source that are not given here.

Assays:
[1] = tested on: pigs, coronary injury with stenting; assay: Coronary injury and stent in pigs: hematology, blood chemistry, coagulation, bleeding and inflammation markers (Example 6); conditions: for ALT / AST / AlkPh / BUN / Creat / Glu / HGB / K / Na / PCV / Platelets / RBC / Tot. Prot / WBC: single animals and mean ± std. dev.
[2] = tested on: dogs, coronary thrombotic occlusion; assay: Canine coronary thrombosis and fibrinolysis model, adjunctive treatment with rtPA (Example 7); format: in vivo, dog; conditions: dogs
Description: Thrombotic occlusion was induced by electrical injury to a coronary artery in dogs. […] Buccal mucosa bleeding times, PT, and aPTT were measured as indices of bleeding risk. After 24 hours of reperfusion, infarct size was determined by Evan's blue and triphenyltetrazolium chloride double staining. This protocol is illustrated in FIG. 7.

[3] = tested on: pigs, coronary injury with stenting; assay: Coronary injury (balloon overstretch) and bare metal stent in pigs: platelet accumulation and luminal stenosis (Example 6); format: in vivo, pig
Description: Coronary injury with or without stenting in pigs is regarded as the best preclinical model for simulation of human angioplasty (Touchard, A. G., et al., Thromb. Res. (2007) 120:477-484). One coronary artery was injured by balloon overstretch in each pig and the site of injury including some overlap with the non-injured vessel was covered with a single bare metal stent (BMS).
Accumulation of ^111In-labeled autologous platelets on the stents over the first 24 h was measured in 4/6 pigs in each group. Radiolabeled platelets were injected 15 min before the coronary catheterization and the hearts perfusion-fixed after 24 h to obtain the stented vessel segment for counting radiolabeled platelets.

[4] = tested on: rats, thromboembolic stroke (MCA occlusion); assay: Rat model of thromboembolic stroke (MCA occlusion by preformed clot), apyrase agent plus aspirin (Example 2); format: in vivo; conditions: for Neurological deficits, median (interquartile range 25th to 75th), modified Bederson score: n = 10
Description: In this study, four experimental groups were included (n=10):
(1) control, saline injected gastrically;
(2) aspirin, 1.25 mg/kg (equivalent to 100 mg/day dose in human) injected gastrically once a day, starting 3 days prior to middle cerebral artery (MCA) occlusion and also MCA occlusion until the end of each experiment;
(3) apyrase, dose at 0.75 mg/kg injected IV at 2 h after MCA occlusion;
(4) combination group, aspirin and apyrase agent.
In this clinically relevant embolic model, ischemic brain injury was induced by embolizing preformed clots into the middle cerebral artery (MCA). Ten microliters of blood were withdrawn into a catheter and retained for 15 min to allow formation of a clot. Once the clot was formed, the catheter was advanced 17 mm in the ICA until its tip was 1-2 mm away from the origin of the MCA. The preformed clot in the catheter was then injected, and the catheter was removed. […]
Infarct was measured in the brain section stained with 2,3,5-triphenyltetrazolium chloride (TTC) solution. The infarct volume was expressed as a percentage of the total volume from the ipsilateral hemisphere.
Brain swelling (edema) was determined using a formula: edema=(the volume of the right hemisphere—the volume of the left hemisphere)/the volume of the left hemisphere.
Neurological deficits were determined using a modified Bederson's scoring system as following: 0: no observable deficit; 1: forelimb flexion; 2: forelimb flexion plus decreased resistance to lateral push; 3: unidirectional circling; 4: unidirectional circling plus decreased level of consciousness.
Hemorrhagic transformation was quantified by detection of extracellular hemoglobin content in brain homogenates using Drabkin's reagents.

[5] = tested on: rats, embolic stroke (thrombus injection into internal carotid artery); assay: Embolic stroke model in rats, apyrase agent with or without r-tPA (Example 1); format: in vivo, rat; conditions: r-tPA 10 mg/kg alone; brains at 3 days
Description: The following groups were included in this study:
(1) control (saline treated), n=11;
(2) apyrase agent at 0.75 mg/kg, n=4;
(3) apyrase agent at 2.25 mg/kg, n=4;
(4) r-tPA (at 10 mg/kg), n=4;
(5) apyrase agent at 0.75 mg/kg plus r-tPA (10 mg/kg) and
(6) apyrase agent at 2.25 mg/kg plus r-tPA (10 mg/kg) (n=10).
All the treatments were initiated at 2 h following thrombus injection into internal carotid artery. Infarct volume and behavioral deficit were determined at day 3 after the stroke.

[6] = tested on: ADP-induced platelet aggregation; assay: Ex vivo ADP-induced platelet aggregation in platelet-rich plasma after dosing rabbits; parameters: species or system rabbit; conditions: clopidogrel 10 mg/kg oral
From the text: Blood samples taken at various time points were heparinized.
Data are presented as relative light transmission versus time.

[7] = tested on: ADP-induced platelet aggregation; assay: Ex vivo ADP-induced platelet aggregation in platelet-rich plasma in pigs (Example 5); parameters: species or system pig
[8] = aspirin 5 mg/kg, clopidogrel 4 mg/kg
[9] = by the end of adjunctive therapy

Row | Compound | ALT [1] | AST [1] | AlkPh [1] | BUN [1] | Creat [1] | Glu [1] | HGB [1] | K [1] | Na [1] | PCV [1] | Platelets [1] | RBC [1] | Tot. Prot [1] | WBC [1] | also measured
1 | heparin |  |  |  |  |  |  |  |  |  |  |  |  |  |  | Activated Clotting Time relative to baseline ([1]; after heparin 150 U/kg): > 9 fold; Activated Clotting Time (ACT) ([1]; after heparin 150 U/kg (baseline 119±15 sec, n=17)): 1114 ± 286 s
2 | CC(=O)Oc1ccccc1C(=O)O [aspirin] | 48 u/L and 25 u/L and 52 u/L and 50 u/L and 106 u/L | 45 u/L and 24 u/L and 38 u/L and 29 u/L and 211 u/L | 95 u/L and 68 u/L and 132 u/L and 117 u/L and 235 u/L | 12 mg/dL and 10 mg/dL and 4 mg/dL and 7 mg/dL and 11 mg/dL | 1.1 mg/dL (4×) and 0.9 mg/dL | 30 mg/dL and 38 mg/dL and 49 mg/dL and 20 mg/dL and 58 mg/dL | 9.3 g/dL and 8.1 g/dL (3×) and 7.2 g/dL | 3.5 mmol/L and 3.3 mmol/L and 3.6 mmol/L and 3.2 mmol/L and 2.7 mmol/L | 135 mmol/L and 140 mmol/L and 138 mmol/L and 144 mmol/L and 117 mmol/L | 26.8% and 27.7% and 23.9% and 22.8% and 20.7% | 301 thns/uL and 498 thns/uL and 355 thns/uL and 499 thns/uL and 213 thns/uL | 5.19 mil/uL and 4.75 mil/uL and 4.9 mil/uL and 5.07 mil/uL and 4.52 mil/uL | 6 g/dL and 4.5 g/dL and 4 g/dL and 5 g/dL and 4.2 g/dL | 10.3 thns/uL and 16.4 thns/uL and 13.2 thns/uL and 13.9 thns/uL and 13.3 thns/uL | Re-occlusion rate [2, 8]: 100%; Re-occlusion time [2, 8]: 81′; Reperfusion Time ([2]; aspirin 5 mg/kg, clopidogrel 4 mg/kg, after r-tPA): 23′; average luminal stenosis ([3]; 30 days after stenting, six measurements in two pigs): 29.6±6%; accumulation of radiolabeled platelets on stented coronaries ([3]; after 24 h, apyrase […] or clopidogrel 8 mg/kg, each with aspirin 10 mg/kg and heparin): 5.5×10^5 platelets/mm^2; Neurological deficits, median (interquartile range 25th to 75th), modified Bederson score ([4]; 4 h after MCA occlusion): 3; Neurological deficits, median (interquartile range 25th to 75th), modified Bederson score ([4]; 4 h after MCA occlusion, listed as Aspirin (ASA)): 3 (2-4); Neurological deficits, median (interquartile range 25th to 75th), modified Bederson score ([4]; 8 h after MCA occlusion): 2.5 (2-3); infarct volume, percentage of the total volume of the ipsilateral hemisphere (mean±SD) ([4]; 24 h after MCA occlusion, aspirin 1.25 mg/kg gastrically once a day from 3 days prior, apyrase 0.75 mg/kg IV at 2 h): 20.69±2.85%; Neurological deficits, median (interquartile range 25th to 75th), modified Bederson score ([4]; 24 h after MCA occlusion): significantly less severe than the control group; Neurological deficits, median (interquartile range 25th to 75th), modified Bederson score ([4]; 24 h after MCA occlusion, listed as Aspirin (ASA)): 1.5 (1-2)*; extracellular hemoglobin content in brain homogenates (hemorrhagic transformation, Drabkin's reagents) ([4]; 24 h after ischemic injury): 0.93±0.11; brain edema (brain swelling) ([4]; 24 h after ischemic injury, aspirin 1.25 mg/kg, apyrase 0.75 mg/kg IV at 2 h): 6.81±0.56%
3 | r-tPA: recombinant tissue plasminogen activator |  |  |  |  |  |  |  |  |  |  |  |  |  |  | Hemorrhage #/total animals [5]: 5 out of 11 and 5/11
4 | COC(=O)[C@H](c1ccccc1Cl)N1CCc2sccc2C1 [clopidogrel] | 47 u/L and 65 u/L and 45 u/L (2×) and 43 u/L and 77 u/L | 61 u/L and 63 u/L and 57 u/L and 31 u/L and 44 u/L and 64 u/L | 131 u/L and 111 u/L and 225 u/L and 180 u/L (2×) and 184 u/L | 13 mg/dL and 12 mg/dL and 8 mg/dL and 7 mg/dL and 11 mg/dL and 5 mg/dL | 0.9 mg/dL (4×) and 1 mg/dL (2×) | 20 mg/dL and 33 mg/dL and 69 mg/dL and 40 mg/dL (2×) and 30 mg/dL | 7.6 g/dL and 7.8 g/dL and 6.7 g/dL and 9.2 g/dL and 9 g/dL and 8.5 g/dL | 4.3 mmol/L and 4.2 mmol/L (2×) and 3.5 mmol/L and 4.4 mmol/L (2×) | 131 mmol/L and 132 mmol/L and 119 mmol/L and 140 mmol/L and 134 mmol/L and 138 mmol/L | 21.4% and 22.9% and 20.8% and 28% and 25% and 25.8% | 248 thns/uL and 347 thns/uL and 345 thns/uL and 294 thns/uL and 298 thns/uL and 225 thns/uL | 4.3 mil/uL and 4.7 mil/uL (2×) and 4.6 mil/uL and 5.8 mil/uL and 5.5 mil/uL | 4.8 g/dL and 5.2 g/dL and 4.2 g/dL and 4.5 g/dL and 4.7 g/dL and 4.6 g/dL | 10.8 thns/uL and 16.1 thns/uL and 11.3 thns/uL and 16.9 thns/uL (2×) and 12 thns/uL | buccal mucosa bleeding time [2]: significantly prolonged; PT [2, 9]: increased; aPTT [2, 9]: increased; blood loss from a standardized incision of the abdominal wall ([1]; 2 and 24 h, blood collected over 5 min): trend for an increase in blood loss by 24 h; template bleeding times relative to apyrase agent or control pigs ([1]; 2 and 24 h, scalpel cut at the edge of the ear): ~3 fold; PT compared to baseline ([1]; 3, 8 and 24 h after gavage): increased significantly compared to baseline; aPTT ([1]; during the time of heparinization): the increase was significant only in clopidogrel-treated pigs; template bleeding time ([1]; summary of findings): markedly increased; time after treatment at which significant effect on platelet aggregation was observed [6]: 5 h; platelet aggregation by 24 h ([7]; 24 h after dosing): persistent inhibition of aggregation; time after dosing at which significant inhibition of ADP-induced platelet aggregation began ([7]; clopidogrel 8 mg/kg gavage plus aspirin and heparin): 5 h
